How the values were obtained:
[1] = target: T1, human recombinant dopamine D2L receptor (Homo sapiens, UniProt P14416); assay: Dopamine D2L radioligand binding ([3H]Spiperone); settings: 0.16 nM [3H]Spiperone; for inhibition at 1 µM: read-out: Dopamine D2L (1 μM), percent inhibition of specific binding, compound at 1 μM; for inhibition at 0.1 µM: read-out: Dopamine D2L (0.1 μM), percent inhibition of specific binding, compound at 0.1 μM
T1 construct: expressed in transfected cells; host or cells: CHO
Procedure: Non-specific binding was estimated in the presence of 10 μM Haloperidol. Receptor proteins were filtered and washed, the filters were then counted to determine [^3H]Spiperone specifically bound.

[2] = target: T2, human recombinant serotonin (5-Hydroxytryptamine) 5-HT7 receptor (Homo sapiens, UniProt P34969); assay: Serotonin 5-HT7 radioligand binding ([3H]LSD); settings: compound at 0.1 μM; read-out: Inhibition of ligand binding, Serotonin 5-HT7 (percent inhibition of specific binding)
T2 construct: expressed in transfected cells; host or cells: CHO
Procedure: Lysergic acid diethylamide (LSD) for 120 min. at 25° C. […] Receptor proteins were filtered and washed, the filters were then counted to determine [^3H]LSD specifically bound.

[3] = target: T3, human recombinant serotonin (5-Hydroxytryptamine) 5-HT2A receptor (Homo sapiens, UniProt P28223); assay: Serotonin 5-HT2A radioligand binding ([3H]Ketanserin); settings: compound at 0.1 μM; read-out: Inhibition of ligand binding, Serotonin 5-HT2A (percent inhibition of specific binding)
T3 construct: expressed in transfected cells; host or cells: CHO-K1
Procedure: Compounds of the invention were incubated with 0.5 nM [^3H]Ketanserin for 60 min at 25° C. Non-specific binding was estimated in the presence of 1 μM Mianserin. Receptor proteins were filtered and washed, the filters were then counted to determine [^3H]Ketanserin specifically bound.

[4] = target: T4, human recombinant serotonin (5-Hydroxytryptamine) 5-HT2C receptor (Homo sapiens, UniProt P28335); assay: Serotonin 5-HT2C radioligand binding ([3H]Mesulergine); settings: compound at 0.1 μM; read-out: Inhibition of ligand binding, Serotonin 5-HT2C (percent inhibition of specific binding)
T4 construct: expressed in transfected cells; host or cells: CHO-K1
T4 sequence (P28335 33-458): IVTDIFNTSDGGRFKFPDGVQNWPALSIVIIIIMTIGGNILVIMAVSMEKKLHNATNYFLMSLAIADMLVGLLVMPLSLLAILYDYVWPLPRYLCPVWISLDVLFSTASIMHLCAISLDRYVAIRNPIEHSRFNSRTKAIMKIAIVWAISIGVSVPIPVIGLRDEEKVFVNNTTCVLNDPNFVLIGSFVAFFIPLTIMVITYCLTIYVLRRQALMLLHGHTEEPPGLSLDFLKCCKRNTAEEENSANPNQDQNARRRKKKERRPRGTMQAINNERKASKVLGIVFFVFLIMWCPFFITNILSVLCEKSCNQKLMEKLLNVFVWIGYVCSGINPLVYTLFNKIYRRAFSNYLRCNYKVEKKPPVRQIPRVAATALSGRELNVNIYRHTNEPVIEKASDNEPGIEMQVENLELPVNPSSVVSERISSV
Procedure: Compounds of the invention were incubated with 1 nM [^3H]Mesulergine for 60 min at 25° C. Non-specific binding was estimated in the presence of 1 μM Mianserin. Receptor proteins were filtered and washed, the filters were then counted to determine [^3H]Mesulergine specifically bound.

T3 sequence (P28223 whole entry): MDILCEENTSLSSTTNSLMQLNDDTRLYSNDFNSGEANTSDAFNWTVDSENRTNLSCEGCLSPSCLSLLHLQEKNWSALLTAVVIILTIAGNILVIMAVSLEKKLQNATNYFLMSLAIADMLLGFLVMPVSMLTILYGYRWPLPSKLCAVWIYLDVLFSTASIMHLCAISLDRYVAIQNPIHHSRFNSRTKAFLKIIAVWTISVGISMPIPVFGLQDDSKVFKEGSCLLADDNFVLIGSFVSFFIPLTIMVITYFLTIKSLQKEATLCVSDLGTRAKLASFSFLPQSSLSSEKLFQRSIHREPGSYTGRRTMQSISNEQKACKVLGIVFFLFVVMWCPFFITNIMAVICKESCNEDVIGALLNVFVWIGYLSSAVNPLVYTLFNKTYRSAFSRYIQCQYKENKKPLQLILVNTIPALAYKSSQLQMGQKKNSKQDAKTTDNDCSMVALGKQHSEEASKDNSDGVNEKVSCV
T1 sequence (P14416 whole entry): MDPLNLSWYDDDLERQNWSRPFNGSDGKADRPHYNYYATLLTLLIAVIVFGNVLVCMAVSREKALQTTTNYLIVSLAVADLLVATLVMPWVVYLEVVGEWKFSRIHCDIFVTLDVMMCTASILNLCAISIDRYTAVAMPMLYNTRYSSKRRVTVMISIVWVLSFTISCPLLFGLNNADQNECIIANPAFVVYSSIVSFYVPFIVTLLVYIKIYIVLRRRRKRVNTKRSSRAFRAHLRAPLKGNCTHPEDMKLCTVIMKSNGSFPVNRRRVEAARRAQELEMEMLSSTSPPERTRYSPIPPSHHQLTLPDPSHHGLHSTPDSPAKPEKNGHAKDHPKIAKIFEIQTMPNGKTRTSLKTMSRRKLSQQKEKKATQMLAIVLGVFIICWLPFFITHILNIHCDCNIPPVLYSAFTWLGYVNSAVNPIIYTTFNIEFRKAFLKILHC
T2 sequence (P34969 whole entry): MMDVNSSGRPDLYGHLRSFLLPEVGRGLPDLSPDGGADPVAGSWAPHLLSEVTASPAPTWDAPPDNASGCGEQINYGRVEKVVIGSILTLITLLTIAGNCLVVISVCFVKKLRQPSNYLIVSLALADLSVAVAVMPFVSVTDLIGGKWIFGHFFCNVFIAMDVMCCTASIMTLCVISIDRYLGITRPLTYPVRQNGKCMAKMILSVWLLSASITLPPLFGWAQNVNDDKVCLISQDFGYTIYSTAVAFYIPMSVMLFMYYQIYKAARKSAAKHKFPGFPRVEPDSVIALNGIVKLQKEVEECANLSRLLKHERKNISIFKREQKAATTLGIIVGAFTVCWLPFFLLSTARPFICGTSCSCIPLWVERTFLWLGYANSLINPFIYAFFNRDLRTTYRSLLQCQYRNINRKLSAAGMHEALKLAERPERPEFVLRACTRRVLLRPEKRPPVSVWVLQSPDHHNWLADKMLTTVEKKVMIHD

| Compound | inhibition at 1 µM [1] [%] | inhibition at 0.1 µM [2] [%] | inhibition at 0.1 µM [3] [%] | inhibition at 0.1 µM [4] [%] | inhibition at 0.1 µM [1] [%] |
| --- | --- | --- | --- | --- | --- |
| Cc1ccc2c(c1)c1c(n2-c2ccc(-c3ccc(S(N)(=O)=O)cc3)cn2)CCN(C)C1 [Compound No. 145, 4-(6-(2,8-dimethyl-3,4-dihydro-1H-pyrido[4,3-b]indol-5(2H)-yl)pyridin-3-yl)benzenesulfonamide] | 8 | 32 | 82 | 66 | – |
| Cc1ccc2c(c1)c1c(n2-c2ccc3ccncc3c2)CCN(C)C1 [Compound No. 74, 5-(isoquinolin-7-yl)-2,8-dimethyl-2,3,4,5-tetrahydro-1H-pyrido[4,3-b]indole] | 56 | 2 | 34 | 51 | – |
| Cc1ccc2c(c1)c1c(n2-c2cscc2-c2cccc3[nH]ncc23)CCN(C)C1 [Compound 41] | 24 | 96 | 84 | 91 | – |
| Cc1ccc2c(c1)c1c(n2-c2cccc(-c3cnn(C)c3)c2)CCN(C)C1 [Compound 46, 2,8-dimethyl-5-(3-(1-methyl-1H-pyrazol-4-yl)phenyl)-2,3,4,5-tetrahydro-1H-pyrido[4,3-b]indole] | 20 | 51 | 84 | 41 | – |
| Cc1ccc2c(c1)c1c(n2-c2ccc(-c3ccc(F)nc3)cn2)CCN(C)C1 [Compound No. 142, 5-(6′-fluoro-3,3′-bipyridin-6-yl)-2,8-dimethyl-2,3,4,5-tetrahydro-1H-pyrido[4,3-b]indole] | 13 | 22 | 103 | 98 | – |
| Cc1ccc2c(c1)c1c(n2-c2cccc(-c3ccc4[nH]cnc4c3)c2)CCN(C)C1 [Compound 54, 5-(3-(1H-benzo[d]imidazol-5-yl)phenyl)-2,8-dimethyl-2,3,4,5-tetrahydro-1H-pyrido[4,3-b]indole] | 22 | 26 | 92 | 21 | – |
| Cc1ccc2c(c1)c1c(n2-c2cccc(-c3c(C)noc3C)c2)CCN(C)C1 [Compound No. 65, 4-(3-(2,8-dimethyl-3,4-dihydro-1H-pyrido[4,3-b]indol-5(2H)-yl)phenyl)-3,5-dimethylisoxazole] | 29 | 46 | 85 | 57 | – |
| Cc1cc(C)c2c(c1)c1c(n2-c2cccc3ncccc23)CCN(C)C1 [Compound 47] | 19 | 36 | 1 | 32 | – |
| Cc1ccc2c(c1)c1c(n2-c2ccc(-c3ccc4c(ccn4C)c3)cn2)CCN(C)C1 [Compound No. 136, 2,8-dimethyl-5-(5-(1-methyl-1H-indol-5-yl)pyridin-2-yl)-2,3,4,5-tetrahydro-1H-pyrido[4,3-b]indole] | 15 | 26 | 98 | 101 | – |
| Cc1ccc2c(c1)c1c(n2-c2cccc(-c3cnc(N(C)C)nc3)c2)CCN(C)C1 [Compound 42, 5-(3-(2,8-dimethyl-3,4-dihydro-1H-pyrido[4,3-b]indol-5(2H)-yl)phenyl)-N,N-dimethylpyrimidin-2-amine] | 17 | 31 | 62 | 32 | – |
| Cc1ccc2c(c1)c1c(n2-c2ccc(-c3ccncc3)cn2)CCN(C)C1 [Compound No. 132, 5-(3,4′-bipyridin-6-yl)-2,8-dimethyl-2,3,4,5-tetrahydro-1H-pyrido[4,3-b]indole] | 18 | 23 | 83 | 77 | – |
| CNC(=O)c1ccc(-c2cccc(-n3c4c(c5cc(C)ccc53)CN(C)CC4)c2)cn1 [Compound No. 75, 5-(3-(2,8-dimethyl-3,4-dihydro-1H-pyrido[4,3-b]indol-5(2H)-yl)phenyl)-N-methylpicolinamide] | 18 | 21 | 55 | 25 | – |
| Cc1csc(-c2ccc(-n3c4c(c5cc(C)ccc53)CN(C)CC4)nc2)c1 [Compound No. 144, 2,8-dimethyl-5-(5-(4-methylthiophen-2-yl)pyridin-2-yl)-2,3,4,5-tetrahydro-1H-pyrido[4,3-b]indole] | 5 | 37 | 103 | 100 | – |
| Cc1ccc2c(c1)c1c(n2-c2cccc(-c3sccc3C)c2)CCN(C)C1 [Compound 43, 2,8-dimethyl-5-(3-(3-methylthiophen-2-yl)phenyl)-2,3,4,5-tetrahydro-1H-pyrido[4,3-b]indole] | 26 | 33 | 102 | 8 | – |
| Cc1ccc2c(c1)c1c(n2-c2cscc2-c2cnn(C)c2)CCN(C)C1 [Compound 30] | 4 | 94 | 92 | 84 | – |
| CNC(=O)c1cccc(-c2cscc2-n2c3c(c4cc(C)ccc42)CN(C)CC3)c1 [Compound No. 154] | – | 73 | 83 | 67 | 1 |
| Cc1ccc2c(c1)c1c(n2-c2cccc(-c3ccc(C)s3)c2)CCN(C)C1 [Compound No. 64, 2,8-dimethyl-5-(3-(5-methylthiophen-2-yl)phenyl)-2,3,4,5-tetrahydro-1H-pyrido[4,3-b]indole] | 24 | 31 | 102 | 83 | – |
| Cc1ccc2c(c1)c1c(n2-c2cccc(-c3ccc(C)nc3)c2)CCN(C)C1 [Compound 60, 2,8-dimethyl-5-(3-(6-methylpyridin-3-yl)phenyl)-2,3,4,5-tetrahydro-1H-pyrido[4,3-b]indole] | 24 | 41 | 102 | 53 | – |
| Cc1ccc2c(c1)c1c(n2-c2ccc(-c3ccc(F)cc3)cn2)CCN(C)C1 [Compound No. 140, 5-(5-(4-fluorophenyl)pyridin-2-yl)-2,8-dimethyl-2,3,4,5-tetrahydro-1H-pyrido[4,3-b]indole] | -4 | 41 | 104 | 100 | – |
| CNC(=O)c1ccc(-c2ccccc2-n2c3c(c4cc(C)ccc42)CN(C)CC3)cn1 [Compound No. 71, 5-(2-(2,8-dimethyl-3,4-dihydro-1H-pyrido[4,3-b]indol-5(2H)-yl)phenyl)-N-methylpicolinamide] | 10 | 27 | 1 | 15 | – |
| Cc1ccc2c(c1)c1c(n2-c2ccc3nc(C)ccc3c2)CCN(C)C1 [Compound No. 157, 2,8-dimethyl-5-(2-methyl-quinolin-6-yl)-2,3,4,5-tetrahydro-1H-pyrido[4,3-b]indole] | – | 16 | 88 | 88 | -6 |
| Cc1ccc2c(c1)c1c(n2-c2ccccc2-c2ccnn2C)CCN(C)C1 [Compound 32] | 10 | 55 | 59 | 50 | – |
| Cc1cc(C)c2c(c1)c1c(n2-c2cccc(-c3ccncc3)c2)CCN(C)C1 [Compound 57, 2,6,8-trimethyl-5-(3-(pyridin-4-yl)phenyl)-2,3,4,5-tetrahydro-1H-pyrido[4,3-b]indole] | 31 | 39 | 70 | 28 | – |
| Cc1ccc2c(c1)c1c(n2-c2ccc(-c3cccnc3)cn2)CCN(C)C1 [Compound No. 133, 5-(3,3′-bipyridin-6-yl)-2,8-dimethyl-2,3,4,5-tetrahydro-1H-pyrido[4,3-b]indole] | 11 | 21 | 86 | 92 | – |
| Cc1ccc2c(c1)c1c(n2-c2cscc2-c2ccc(F)nc2)CCN(C)C1 [Compound 35] | 17 | 93 | 82 | 74 | – |
